Data on one substance can be found in publication PMC5993284, “Peptide inhibitors of the anaphase promoting-complex that cause sensitivity to microtubule poison” (PLoS ONE, 2018).

This experiment relates to APC/C. Briefly: Biotinylated peptide pull-down of purified APC/C, Western blot. Format: binding, Saccharomyces cerevisiae. The conditions noted are these: 20 μM biotinylated peptide, purified yeast APC/C, 1 h at 4 °C, streptavidin/Avidin beads, n = 3. The procedure:
For APC/C purification, the APC/C which contain Cdc16-TAP-tag was isolated from 2 mL arrested yeast lysate by 120 μL IgG sepharose 6 Fast Flow beads (GE Healthcare Life Sciences) and incubate for 2 h at 4 °C on a rotating wheel. Beads were collected washed with 5 mL of APC/C wash buffer (200 mM Hepes pH8.0, 150 mM NaCl, 10% glycerol). Beads were resuspended in 150 μL of APC/C wash buffer contain 17.6 units of AcTEV protease (Invitrogen, Carlsbad, CA) at 4°C for 3 h with pipetting every 20 minutes. The purified APC/C was collected in the flow-through.
For APC/C binding assays, 20 μM biotinylated peptides or 20 μM peptides only as a negative control were incubated with purified APC/C and 100 μL APC/C wash buffer which contains phosphatase inhibitors (200 mM Hepes pH 8.0, 150 mM NaCl, 10% glycerol, 10 mM NaF, 1 mM NaVO4, 5 mM Na-pyrophosphate, 10 mM 2-glycerol phosphate) for 1 h at 4 °C. The mixtures were applied to 120 μL streptavidin beads (Dynabeads MyOne Streptavidin T1, Invitrogen) for 30 min at 4 °C with gentle pipetting every 10 min. Beads were washed with 1 mL of PBST buffer (Phosphate buffer saline and 0.1% Tween 20) three times SDS-PAGE protein sample was added directly. For APC/C binding competition experiments, the biotinylated peptide and 10-fold excess non-biotinylated peptides were added to purified APC/C at same time.
Free D-biotin in 10% DMSO was used for the control binding assays. For pre-coating APC/C with biotin, a modified APC/C purification was performed. 2 mL yeast lysate was incubated with 120 μL IgG Sepharose beads and additional 20.4 μM free biotin or non-biotin solvent as a positive control was added and samples were incubated for 2 h at 4 °C on a rotating wheel. Purified pre-coated APC/C was then removed from the IgG Sepharose following the standard purification procedure. 20 μM biotinylated peptides or 20 μM peptides as a negative control were incubated with pre-coated APC/C and 100 μL APC/C wash buffer which contain phosphatase inhibitors for 1 h at 4 °C. In addition, 20 μM biotinylated peptide was added and incubated with pre-coated APC/C in a non-biotin containing solvent as positive control. Pre-coated APC/C binding procedures were same as above. For pre-coating streptavidin beads with biotin, streptavidin beads were washed in the presence of 10.2 nmol/mL D-biotin in PBST buffer or non-biotin solvent as a positive control before use. Pre-coated streptavidin beads were incubated with purified APC/C-peptide complexes with an extra […] biotin for 30 minutes with gentle pipetting every 10 min at 4 °C.
Proteins were separated in SDS-PAGE gels and then were transferred to PVDF membrane. Blocking was performed by incubating samples in 20 mL PBST with 5% milk at 4 °C. Rabbit anti-tap (Thermo, CAB1001) was used as primary antibodies at a 1:1000 dilution and incubated for 2 hours at RT. Anti-rabbit HRP (Jackson, USA) was then used as secondary antibody at 1:5000 dilution and incubate for 1 hr at RT. Chemiluminescence signals were detected using an ImageQuant LAS 4000 (GE Healthcare Bio-Sciences, USA). For cell cycle timing Western blots anti-MYC and anti-Actin antibodies were employed (ABCAM, UK).
For orientation: Immunoblotting shows a protein as a band on a membrane.

Ends that are not written are not given here. * marks the point of attachment. Biotin = O=C1N[C@H]2[C@H](CS[C@H]2CCCCC(=O)*)N1

For “DQ36-mut1: DQ36-mut1 where all 5 RILQY residues were changed to alanine AAAAA (Biotin-DMNKAAAAAMPEPPKCSSLRQKSYIMKKRTHYSYQQ)”, the “binding to APC/C (in words)” value was “maintained the ability to pull-down APC/C”.
